Experimental data from patent US20240009175A9, “TETRAZOLE DERIVATIVES” (Merck Patent GmbH, priority 2020, published 2024).

Key:
ACSS2 [1] = biological target: T1, ACSS2 (Homo sapiens (Human), UniProt Q9NR19); assay: Cellular assay of 14C acetate incorporation into histones (IC50 ACSS2 cellular histone); assay type: cell-based; conditions: HCT-15 cells
How it was run: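 HCT-15 cells preincubated 1 h with compound (0.25% DMSO), then pulsed 3 h with 14C-acetate in full DMEM/10% FBS. Histones acid-extracted (0.2 M HCl, overnight, 4 °C) after Triton lysis in sodium butyrate buffer; incorporated 14C counted by scintillation (CPM) to give IC50.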

ACSS2 [2] = biological target: T1, ACSS2; assay: Cellular assay of 14C acetate incorporation into fatty acids (IC50 ACSS2 cellular lipids); assay type: cell-based; conditions: HCT-15 cells
Description: Cellular Assay of ^14C Acetate Incorporation into Fatty Acids (IC50 ACSS2 Cellular Lipids)
This protocol describes a cellular assay capable to quantify endogenous fatty acid synthesis activity in the human HCT-15 cancer cell line following the incorporation of extracellularly administered radiolabeled ^14C acetate with a scintillation proximity based read out on extracted fatty acids.
HCT-15 cells were grown in RPMI 1640 (Gibco) supplemented with 2 mM glutamine, 1 mM sodium pyruvate 10 mM HEPES and 10% FCS (heat-inactivated) passaged every 2-3 days to remain a subconfluent, vital culture. A working cell bank was prepared with each aliquot containing 1×10^7 viable cells. After thawing, these cells are dilute immediately 1:20 in pre-warmed (37° C.) culture medium. Cells are collected by centrifugation at 200×g for 5 min, and the supernatant is replaced by 30 mL of fresh culture medium per aliquot to obtain a cell suspension containing 350000 cells/ml. From this cell suspension 100 μL are dispersed into each well of a collagen coated 96 well plate, (black, clear bottom, PS, F-bottom, Greiner) and culture for 24 h (37° C., 5% CO2). After incubation the culture medium is removed and the wells are washed once with 100 μL PBS++(supplemented with Mg^2+/Ca^2+, Gibco) and 50 μL assay medium (RPMI 1640+10 mM HEPES) are added to each well. Compounds serial dilutions are prepared from 10 mM stock solutions in DMSO using a fixed dilution factor (usually 1:3). After preparation of the dilution series in DMSO, the individual dilutions are further diluted in the assay medium. This working dilution is prepared such, that the concentration is 7× of the final concentration in the assay. The maximal DMSO concentration in the final assay is 0.1%.
To each well 10 μL compound working dilution or DMSO blank are added and the cells are cultured for 2 h (37° C., 5% CO2). Then 10 μL AlamarBlue reagent (Invitrogen) containing 14 μCi/mL 14C-acetate (Perkin Elmer) are added to each well (70 μl total volume) and cells are again cultured for 2 h. Cell viability is verified by measuring the AlamarBlue fluorescence (Tecan Safire, ex: 544 nm/em: 590 nm). After incubation the culture medium is removed and the wells are carefully washed once with cold 100 μL PBS++. For cell lysis and fatty acid recovery 50 μl 0.1 M NaOH and 0.1% Triton-X100 are added per well. The plate is sealed with PlateLoc (clear peelable heat seal, Agilent) and incubate at 70° C. for 16-24 h. After cooling to room temperature, the plates are centrifuged for 1 min at 1000 rpm and the plate seals are removed. For acidification 150 μL 0.1 M HCl are added to each well, mixed and 150 μL of the mixture are transferred into a 96 well FlashPlate (Perkin Elmer). The plates are sealed with TopSeal-A (Perkin Elmer). To allow for the fatty acid binding to the well surfaces the plates are incubate for 4 h at 70° C. After cooling to room temperature, the plates are centrifuged for 1 min at 1000 rpm and stored for 0.5-2h at room temperature in the dark. Radioactivity from ^14C incorporation into fatty acids in the wells is measured as CPM count in a MicroBeta scintillation counter (Perkin Elmer).

T1 sequence (Q9NR19 whole entry): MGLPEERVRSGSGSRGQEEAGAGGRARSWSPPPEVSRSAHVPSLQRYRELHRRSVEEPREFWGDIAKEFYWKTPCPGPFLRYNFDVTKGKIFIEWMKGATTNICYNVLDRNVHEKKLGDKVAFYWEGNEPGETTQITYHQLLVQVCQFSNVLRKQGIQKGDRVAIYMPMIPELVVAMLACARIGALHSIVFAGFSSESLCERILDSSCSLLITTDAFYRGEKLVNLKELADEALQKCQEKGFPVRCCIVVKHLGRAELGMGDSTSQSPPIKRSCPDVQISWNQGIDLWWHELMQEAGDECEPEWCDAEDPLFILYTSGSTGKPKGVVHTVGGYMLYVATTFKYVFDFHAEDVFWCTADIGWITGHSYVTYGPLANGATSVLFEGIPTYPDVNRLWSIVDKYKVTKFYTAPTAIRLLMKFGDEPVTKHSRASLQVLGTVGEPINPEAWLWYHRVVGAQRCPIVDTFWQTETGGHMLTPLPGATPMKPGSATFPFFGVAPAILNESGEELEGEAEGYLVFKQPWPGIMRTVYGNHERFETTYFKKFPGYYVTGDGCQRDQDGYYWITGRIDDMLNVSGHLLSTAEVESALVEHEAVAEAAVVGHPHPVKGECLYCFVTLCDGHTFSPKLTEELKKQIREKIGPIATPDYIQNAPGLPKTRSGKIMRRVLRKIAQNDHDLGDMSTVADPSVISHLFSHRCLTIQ

SMILES | IC50 (ACSS2 [1]) [nM] | IC50 (ACSS2 [2]) [nM]
CCn1c(C(O)(c2ccccc2)c2ccccc2)nc2ncc(-c3nnn[nH]3)cc21 [Compound 60, [1-ethyl-6-(1H-1,2,3,4-tetrazol-5-yl)-1H-imidazo[4,5-b]pyridin-2-yl]diphenylmethanol] | 100 to 10000 | 100 to 10000
CCn1c(C(O)(c2ccccc2)c2ccccc2)nc2ccc(C(=O)NC[C@@H](C)O)cc21 [Reference Compound, 3-Ethyl-2-[hydroxy(diphenyl)methyl]-N-[(2R)-2-hydroxypropyl]benzimidazole-5-carboxamide, reference compound] | 0.01 to 1 | 1 to 10
CCc1c(C(O)(c2ccccc2)c2ccccn2)nc2cc(OC)c(-c3nnn[nH]3)cn12 (single isomer, unassigned) [Compound 11, [3-Ethyl-7-methoxy-6-(1H-tetrazol-5-yl)-imidazo[1,2-a]pyridin-2-yl]-phenyl-pyridin-2-yl-methanol] | 10 to 100 | 1 to 10
CCc1c(C(O)(c2ccccc2)c2ccccc2)nc2cc(F)c(-c3nnn[nH]3)cn12 [Compound 3, [3-Ethyl-7-fluoro-6-(1H-tetrazol-5-yl)-imidazo[1,2-a]pyridin-2-yl]-diphenyl-methanol] | 100 to 10000 | 10 to 100
CCn1c(C(O)(c2ccccc2)c2ccccc2)nc2nc(C)c(-c3nnn[nH]3)cc21 [Compound 62, [1-ethyl-5-methyl-6-(1H-1,2,3,4-tetrazol-5-yl)-1H-imidazo[4,5-b]pyridin-2-yl]diphenylmethanol] | 100 to 10000 | 100 to 10000
CCc1c(C(O)(c2ccccc2)c2ccccc2)nn2cc(Cl)c(-c3nnn[nH]3)cc12 [Compound 21, [6-Chloro-3-ethyl-5-(1H-tetrazol-5-yl)-pyrazolo[1,5-a]pyridin-2-yl]-diphenyl-methanol] | 10 to 100 | 1 to 10
CCn1c(C(O)(c2ccccc2)c2cccs2)nc2nc(OC)c(-c3nnn[nH]3)cc21 (racemic) [Compound 35, [1-ethyl-5-methoxy-6-(1H-1,2,3,4-tetrazol-5-yl)-1H-imidazo[4,5-b]pyridin-2-yl](phenyl)(thiophen-2-yl)methanol] | 1 to 10 | 0.01 to 1
CCn1c(C(O)(c2ccccc2F)c2ccccc2F)nc2nc(OC)c(-c3nnn[nH]3)cc21 [Compound 57, [1-ethyl-5-methoxy-6-(1H-1,2,3,4-tetrazol-5-yl)-1H-imidazo[4,5-b]pyridin-2-yl]bis(2-fluorophenyl)methanol] | 1 to 10 | 0.01 to 1
CCc1c(C(O)(c2ccccc2)c2ccccc2)nn2cc(OC)c(-c3nnn[nH]3)cc12 [Compound 22, [3-Ethyl-6-methoxy-5-(1H-tetrazol-5-yl)-pyrazolo[1,5-a]pyridin-2-yl]-diphenyl-methanol] | 1 to 10 | 1 to 10
CCn1c(C(O)(c2ccccc2)c2ccccc2)nc2nc(Cl)c(-c3nnn[nH]3)cc21 [Compound 51, [5-chloro-1-ethyl-6-(1H-1,2,3,4-tetrazol-5-yl)-1H-imidazo[4,5-b]pyridin-2-yl]diphenylmethanol] | 10 to 100 | 10 to 100
CCn1c(C(O)(c2ccccc2)c2ccccn2)nc2nc(OC)c(-c3nnn[nH]3)cc21 (racemic) [Compound 50, [1-ethyl-5-methoxy-6-(1H-1,2,3,4-tetrazol-5-yl)-1H-imidazo[4,5-b]pyridin-2-yl](phenyl)(pyridin-2-yl)methanol] | 0.01 to 1 | 0.01 to 1
CCc1c(C(O)(c2ccccc2)c2ccccc2)nc2cc(OC)c(-c3nnn[nH]3)cn12 [Compound 2, [3-Ethyl-7-methoxy-6-(1H-tetrazol-5-yl)-imidazo[1,2-a]pyridin-2-yl]-diphenyl-methanol] | 1 to 10 | 1 to 10
CCn1c(C(O)(c2ccccc2)c2ccccn2)nc2nc(OC)c(-c3nnn[nH]3)cc21 (single isomer, unassigned) [Compound 40, [1-ethyl-5-methoxy-6-(1H-1,2,3,4-tetrazol-5-yl)-1H-imidazo[4,5-b]pyridin-2-yl](phenyl)(pyridin-2-yl)methanol] | 0.01 to 1 | 1 to 10
CCc1c(C(O)(c2ccccc2F)c2ccccc2F)nc2cc(Cl)c(-c3nnn[nH]3)cn12 [Compound 5, [7-Chloro-3-ethyl-6-(1H-tetrazol-5-yl)-imidazo[1,2-a]pyridin-2-yl]-bis-(2-fluoro-phenyl)-methanol] | 100 to 10000 | 10 to 100
CCc1c(C(O)(c2ccccc2F)c2ccccc2F)nc2cc(OC)c(-c3nnn[nH]3)cn12 [Compound 6, [3-Ethyl-7-methoxy-6-(1H-tetrazol-5-yl)-imidazo[1,2-a]pyridin-2-yl]-bis-(2-fluoro-phenyl)-methanol] | 1 to 10 | 1 to 10
CCn1c(C(O)(c2ccccc2F)c2ccccc2F)nc2nc(C)c(-c3nnn[nH]3)cc21 [Compound 59, [1-ethyl-5-methyl-6-(1H-1,2,3,4-tetrazol-5-yl)-1H-imidazo[4,5-b]pyridin-2-yl]bis(2-fluorophenyl)methanol] | 100 to 10000 | 10 to 100
CCn1c(C(O)(c2ccccc2)c2ccccc2)nc2nc(OC)c(-c3nnn[nH]3)cc21 [Compound 58, [1-ethyl-5-methoxy-6-(1H-1,2,3,4-tetrazol-5-yl)-1H-imidazo[4,5-b]pyridin-2-yl]diphenylmethanol] | 0.01 to 1 | 0.01 to 1
COc1nc2nc(C(O)(c3ccccc3)c3ccccc3)n(CCO)c2cc1-c1nnn[nH]1 [Compound 34, 2-[2-(hydroxy-diphenylmethyl)-5-methoxy-6-(1H-1,2,3,4-tetrazol-5-yl)-1H-imidazo[4,5-b]pyridin-1-yl]ethan-1-ol] | 100 to 10000 | 10 to 100
CCn1c(C(O)(c2ccccc2)c2ncccn2)nc2nc(OC)c(-c3nnn[nH]3)cc21 (racemic) [Compound 37, [1-ethyl-5-methoxy-6-(1H-1,2,3,4-tetrazol-5-yl)-1H-imidazo[4,5-b]pyridin-2-yl](phenyl)(pyrimidin-2-yl)methanol] | 1 to 10 | 1 to 10
CCc1c(C(O)(c2ccccc2F)c2ccccc2F)nn2cc(OC)c(-c3nnn[nH]3)cc12 [Compound 19, [3-Ethyl-6-methoxy-5-(1H-tetrazol-5-yl)-pyrazolo[1,5-a]pyridin-2-yl]-bis-(2-fluoro-phenyl)-methanol] | 10 to 100 | 1 to 10
CCc1c(C(O)(c2ccccc2)c2ccccc2)nc2ccc(-c3nnn[nH]3)cn12 [Compound 4, [3-Ethyl-6-(1 H-tetrazol-5-yl)-imidazo[1,2-a]pyridin-2-yl]-diphenyl-methanol] | 100 to 10000 | 10 to 100
CCn1c(C(O)(c2cccs2)c2cccs2)nc2nc(OC)c(-c3nnn[nH]3)cc21 [Compound 38, [1-ethyl-5-methoxy-6-(1H-1,2,3,4-tetrazol-5-yl)-1H-imidazo[4,5-b]pyridin-2-yl]bis(thiophen-2-yl)methanol] | 100 to 10000 | 10 to 100
CCc1c(C(O)(c2ccccc2)c2ccccc2)nc2cc(Cl)c(-c3nnn[nH]3)cn12 [Compound 9, [7-Chloro-3-ethyl-6-(1H-tetrazol-5-yl)-imidazo[1,2-a]pyridin-2-yl]-diphenyl-methanol] | 100 to 10000 | 1 to 10
